Numbered stars: 1 amine (or outer) side, 2 acyl side, 3 side chain; on linkers, the order of the positions; unused ones are H or OH. Bridge positions count the residues as written; N and C are the ends. Square brackets hold non-standard residues; d marks the D form. Peptide text beside a SMILES is read from it. * marks the point of attachment. dLeu(3R-OH) = CC(C)[C@@H](O[*:3])[C@@H](N[*:1])C(=O)[*:2]; Gln(3S,4R-Me2) = C[C@H]([C@H](N)C(=O)O)[C@@H](C)C(N)=O; dTyr(βR-OMe) = CO[C@H](c1ccc(O)cc1)[C@@H](N)C(=O)O; Pip(4S-Cl) = O=C(O)[C@@H]1C[C@@H](Cl)CCN1; X1 = CCC(C)/C=C(C)/C=C\C(O)C(C)(O)C(=O)*; Abu(3R-NH2) = C[C@@H](N)[C@H](N)C(=O)O; NMeT = CN[C@H](C(=O)O)[C@@H](C)O
Tested on: Human immunodeficiency virus 1
Assay: Inhibition of HIV1 isolate YU2 infected in human TZM-bl cells expressing CD4 and CCR5 assessed as assessed inhibition of viral entry after 24 hrs by luciferase reporter assay
Type: functional, organism-based
Details: Human immunodeficiency virus 1, isolate YU2, TZM-bl

CCC(C)/C=C(C)/C=C\C(O)C(C)(O)C(=O)NCC(=O)N[C@H](C(=O)N[C@H](C(=O)N[C@H](C(=O)N[C@H]1C(=O)N[C@H](COC)C(=O)NCC(=O)N[C@@H](C)C(=O)N(C)[C@@H]([C@@H](C)O)C(=O)N[C@H]([C@H](OC)c2ccc(O)cc2)C(=O)N2CC[C@H](Cl)C[C@H]2C(=O)O[C@@H]1C(C)C)[C@@H](C)[C@@H](C)C(N)=O)[C@@H](C)N)[C@@H](C)O (stereo partly drawn) [MIRABAMIDE C] (X1-GT[Abu(3R-NH2)][Gln(3S,4R-Me2)][dLeu(3R-OH)][dS](Me)GA[NMeT][dTyr(βR-OMe)][Pip(4S-Cl)]; ester 5-C)
IC50: 123 nM

— ChEMBL document CHEMBL1687884, “Mirabamides E-H, HIV-inhibitory depsipeptides from the sponge Stelletta clavosa” (J Nat Prod, 2011)
